Assay results as given in patent US4668703A, “γ-allenyl-γ-aminobutyric acids” (Syntex (U.S.A.) Inc., priority 1985, dated 1987).
Where a name gives a salt, the structure may show the parent alone. Read-outs that look alike come from different tables or passages of the source.

What was measured:
[1] = Toxicity test (acute, oral, mouse); assay type: in vivo; conditions: mouse, in vivo, po; male mice, CMC vehicle, observed for 21 days
Description: (§1) 4-amino-5,6-heptadienoic acid prepared in CMC vehicle was administered once daily to groups of 6 male mice at doses of 0, 62.5, 125, 250 and 500 mg/Kg. […] Therefore, the LD50 (acute, oral, mouse) for 4-amino-5,6-heptadienoic acid is greater than 500 mg/Kg.

mouse = assay: Toxicity test (acute, oral, mouse); assay type: in vivo; conditions: male mice, once daily, 62.5, 125, 250 and 500 mg/Kg, observed for 21 days
Description: as §1

C. elegans = C. elegans assay; conditions: Caenorhabditis elegans, read-out: % Active
Description: The compounds tested were dissolved in DMSO at 10 mg/ml to give sample stock solutions. During assay, 1 ml M9 buffer (6 g Na2 HPO4, 3 g KH2 PO4, 5 g NaCl, and 0.25 g MgSO4 H2 O per liter) was placed in each of the 24-wells in a tissue culture plate. 10 μl of sample stock solution was added respectively to each of 23 wells. The remaining well served as drug-free control.
At time 0, 1 drop of C. elegans suspension was dropped into each well (25-50 adults). At 1 hour, the number of active worms versus total in each well was recorded.

N. Brasiliensis = N. Brasiliensis assay, third larval stage; conditions: 50 μg/ml, 37° C., control 100%, read-out: Percent Viable
Description: The compound was tested at 50 μg/ml against the third larval stage of N. Brasiliensis at approximately 50 L3 /well; this mixture was incubated at 37° C. for total of 7 days. Activity of the compound was checked on days 1, 4. and 7 post-inoculation.

[2] = system: γ-aminobutyric acid transaminase; conditions: cited from earlier work
[3] = system: brain level of γ-aminobutyric acid; conditions: in animals; cited from earlier work

Structure (SMILES): C=C=CC(N)CCC(=O)O (stereo not shown) [4-amino-5,6-heptadienoic acid]
- LD50 at 504 h [1]: > 500 mg/kg
- deaths (mouse): no deaths

Structure (SMILES): C=C=CC(N)CCC(=O)OCCCCCCCC (stereo not shown) [Octyl 4-amino-5,6-heptadienoate para-toluene sulfonic acid salt]
- activity at 100 µg/mL (C. elegans; active worms versus total at 1 hour, 10 μl of 10 mg/ml DMSO stock added to 1 ml M9 buffer, control 100%): 45%
- viability at 50 µg/mL (N. Brasiliensis; 24 h, day 1): 64%
- viability at 50 µg/mL (N. Brasiliensis; 96 h, day 4): 0%
- viability at 50 µg/mL (N. Brasiliensis; 168 h, day 7): 0%

Structure (SMILES): C=C=C(C)C(N)CCC(=O)OCCCCCCCC (stereo not shown) [Octyl 4-amino-5-methyl-5,6-heptanoate, octyl-4-amino-5-methyl-5,6-heptadienoate para-toluene-sulfonic acid salt]
- activity at 100 µg/mL (C. elegans; 1 h): 25%

Structure (SMILES): C#CC(N)CCC(=O)O (stereo not shown) [γ-acetylenic]
- irreversible inhibitors of γ-aminobutyric acid transaminase [2]: potent irreversible inhibitors
- increase of the brain level of γ-aminobutyric acid [3]: significantly increase

Structure (SMILES): NC(CF)CCC(=O)O (stereo not shown) [γ-monofluoromethyl-γ-aminobutyric acid]
- irreversible inhibitors of γ-aminobutyric acid transaminase [2]: potent irreversible inhibitors
- increase of the brain level of γ-aminobutyric acid [3]: significantly increase

Structure (SMILES): C=CC(N)CCC(=O)O (stereo not shown) [γ-vinyl-γ-aminobutyric acid]
- irreversible inhibitors of γ-aminobutyric acid transaminase [2]: potent irreversible inhibitors
- increase of the brain level of γ-aminobutyric acid [3]: significantly increase
